Measurements from paper PMC3776780, “Dual p38/JNK Mitogen Activated Protein Kinase Inhibitors Prevent Ozone-Induced Airway Hyperreactivity in Guinea Pigs” (PLoS ONE, 2013).

Experiments:
[1] = biological target: SYK (Homo sapiens, UniProt P43405); assay: spectrophotometric coupled-enzyme kinase inhibition assay; assay type: biochemical; conditions: read-out: Ki or IC50 SYK
Description: (§1) Affinity was measured using a kinase inhibition assay. Compounds were assayed for the inhibition of various kinases using a modification of a spectrophotometric coupled-enzyme assay. In this assay, a fixed concentration of activated kinase (10–40 nM) was incubated with various concentrations of a potential inhibitor dissolved in DMSO for 10 minutes at 30°C in a buffer containing 0.1 M HEPES, pH 7.5, containing 10 mM MgCl2, 2.5 mM phosphoenolpyruvate, 200 µM NADH, 2 mM DTT, 30 µg/mL pyruvate kinase, 10 µg/mL lactate dehydrogenase, and 200 µM–500 µM EGF receptor peptide. The EGF receptor peptide has the sequence […]. The reaction was initiated by the addition of ATP equal to the ATP Km of the kinase, and the assay plate is inserted into the spectrophotometer’s assay plate compartment that was maintained at 30°C. The decrease of absorbance at 340 nm was monitored as a function of time for 10 minutes. The rate data as a function of inhibitor concentration was either fit as an IC50 or to a competitive inhibition kinetic model to determine the compound Ki (see table 1).

[2] = biological target: T1, JAK3 (Homo sapiens, UniProt P52333); assay: as above; assay type: biochemical; conditions: read-out: Ki or IC50 JAK3
T1 sequence (P52333 1-1124): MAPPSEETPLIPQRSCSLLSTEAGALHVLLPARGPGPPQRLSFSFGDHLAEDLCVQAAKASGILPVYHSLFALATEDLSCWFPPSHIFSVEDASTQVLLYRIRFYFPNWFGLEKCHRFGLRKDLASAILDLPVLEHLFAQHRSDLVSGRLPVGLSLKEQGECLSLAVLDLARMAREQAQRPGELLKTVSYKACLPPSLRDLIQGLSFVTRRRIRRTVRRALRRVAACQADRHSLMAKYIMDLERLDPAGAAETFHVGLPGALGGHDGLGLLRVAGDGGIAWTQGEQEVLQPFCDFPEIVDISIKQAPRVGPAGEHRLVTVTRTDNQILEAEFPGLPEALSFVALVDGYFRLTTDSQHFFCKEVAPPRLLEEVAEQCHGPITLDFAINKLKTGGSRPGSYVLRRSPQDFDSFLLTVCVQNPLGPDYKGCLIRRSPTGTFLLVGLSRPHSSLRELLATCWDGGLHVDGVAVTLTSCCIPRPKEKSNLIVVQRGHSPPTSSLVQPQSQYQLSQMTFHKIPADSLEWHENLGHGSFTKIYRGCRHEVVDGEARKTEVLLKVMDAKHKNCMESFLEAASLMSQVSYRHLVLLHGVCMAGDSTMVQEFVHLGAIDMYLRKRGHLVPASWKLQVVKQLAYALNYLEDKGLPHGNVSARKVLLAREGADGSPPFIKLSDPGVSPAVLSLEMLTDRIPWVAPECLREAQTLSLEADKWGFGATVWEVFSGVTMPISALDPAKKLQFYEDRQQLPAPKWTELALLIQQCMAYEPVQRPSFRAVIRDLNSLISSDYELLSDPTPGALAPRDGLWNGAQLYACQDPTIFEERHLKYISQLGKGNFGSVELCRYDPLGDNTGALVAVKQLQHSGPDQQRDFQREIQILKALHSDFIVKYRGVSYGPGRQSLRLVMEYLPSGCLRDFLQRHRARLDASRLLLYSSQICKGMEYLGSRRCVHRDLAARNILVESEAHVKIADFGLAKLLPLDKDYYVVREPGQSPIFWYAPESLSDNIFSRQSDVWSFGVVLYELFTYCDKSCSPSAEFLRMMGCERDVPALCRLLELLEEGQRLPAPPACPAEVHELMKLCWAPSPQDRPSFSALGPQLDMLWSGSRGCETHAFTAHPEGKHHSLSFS
Description: as §1

[3] = biological target: PLK1 (Homo sapiens, UniProt P53350); assay: as above; assay type: biochemical; conditions: read-out: Ki or IC50 PLK1
Description: as §1

[4] = biological target: T2, ZAP70 (Homo sapiens, UniProt P43403); assay: as above; assay type: biochemical; conditions: read-out: Ki or IC50 ZAP70
T2 sequence (P43403 1-619): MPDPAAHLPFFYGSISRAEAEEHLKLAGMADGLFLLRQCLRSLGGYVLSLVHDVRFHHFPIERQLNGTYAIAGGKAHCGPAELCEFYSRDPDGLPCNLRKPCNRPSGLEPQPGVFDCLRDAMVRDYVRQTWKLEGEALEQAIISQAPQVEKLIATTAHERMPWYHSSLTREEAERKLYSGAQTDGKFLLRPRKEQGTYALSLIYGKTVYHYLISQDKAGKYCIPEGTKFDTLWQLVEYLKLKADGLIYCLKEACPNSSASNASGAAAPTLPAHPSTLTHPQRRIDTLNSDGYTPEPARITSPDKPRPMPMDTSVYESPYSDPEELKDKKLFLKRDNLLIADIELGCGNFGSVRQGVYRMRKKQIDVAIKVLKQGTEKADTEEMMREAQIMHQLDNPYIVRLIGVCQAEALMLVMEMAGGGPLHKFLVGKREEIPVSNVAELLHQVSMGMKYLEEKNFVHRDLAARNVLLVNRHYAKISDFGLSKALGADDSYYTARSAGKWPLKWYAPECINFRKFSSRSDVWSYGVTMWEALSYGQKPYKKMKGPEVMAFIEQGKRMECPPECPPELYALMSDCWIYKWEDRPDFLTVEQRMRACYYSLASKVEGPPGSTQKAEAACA
Description: as §1

[5] = tested on: neuronal M2 muscarinic receptors; assay: neuronal M2 muscarinic receptor function (gallamine potentiation of vagally induced bronchoconstriction); assay type: in vivo, guinea pigs; conditions: ozone-exposed, 30 mg/kg ip 1 h before ozone, gallamine 0.1–10 mg/kg iv
Description: (§2) Guinea pigs were exposed to 2 ppm ozone or filtered air for 4 hours as described previously. Physiological measurements, airway inflammation, and histological measurements were made one day after a single ozone exposure.
(§3) Animals were given 30 mg/kg intraperitoneally of the dual p38 and JNK MAPK inhibitors V-05-013, V-05-014, or V-05-015 (Vertex Pharmaceuticals, Cambridge, MA) one hour before ozone exposure (Figure 1). These compounds were chosen because of their overall kinase selectivity profile. […] Inhibitors were dissolved in 25% DMSO in phosphate buffered saline (PBS). Air exposed control animals were given 25% DMSO in PBS one hour before ozone exposure.
Recovery from administration of intravenous acetylcholine was confirmed by pulmonary inflation pressure and heart rate returning to baseline before measuring M2 muscarinic receptor function (5–10 minutes after the last dose of acetylcholine).

[6] = tested on: M3 muscarinic receptor function on airway smooth muscle; assay: smooth muscle M3 muscarinic receptor function (bronchoconstriction to intravenous acetylcholine); assay type: in vivo, guinea pigs; conditions: acetylcholine 1–10 µg/kg iv; for effect on ozone-induced potentiation of bronchoconstriction to intravenous acetylcholine: ozone-exposed, 30 mg/kg ip 1 h before ozone
Description: as §2, §3
Recovery from vagal stimulation was confirmed by pulmonary inflation pressure and heart rate returning to baseline before measuring smooth muscle M3 muscarinic receptor function (5–10 minutes after cessation of vagal stimulation). In vagotomized guinea pigs, M3 muscarinic receptor function on airway smooth muscle was tested by measuring bronchoconstriction after administration of acetylcholine (1–10 µg/kg iv, Sigma-Aldrich).

Chain of PLK1 (P53350 whole entry, species assumed): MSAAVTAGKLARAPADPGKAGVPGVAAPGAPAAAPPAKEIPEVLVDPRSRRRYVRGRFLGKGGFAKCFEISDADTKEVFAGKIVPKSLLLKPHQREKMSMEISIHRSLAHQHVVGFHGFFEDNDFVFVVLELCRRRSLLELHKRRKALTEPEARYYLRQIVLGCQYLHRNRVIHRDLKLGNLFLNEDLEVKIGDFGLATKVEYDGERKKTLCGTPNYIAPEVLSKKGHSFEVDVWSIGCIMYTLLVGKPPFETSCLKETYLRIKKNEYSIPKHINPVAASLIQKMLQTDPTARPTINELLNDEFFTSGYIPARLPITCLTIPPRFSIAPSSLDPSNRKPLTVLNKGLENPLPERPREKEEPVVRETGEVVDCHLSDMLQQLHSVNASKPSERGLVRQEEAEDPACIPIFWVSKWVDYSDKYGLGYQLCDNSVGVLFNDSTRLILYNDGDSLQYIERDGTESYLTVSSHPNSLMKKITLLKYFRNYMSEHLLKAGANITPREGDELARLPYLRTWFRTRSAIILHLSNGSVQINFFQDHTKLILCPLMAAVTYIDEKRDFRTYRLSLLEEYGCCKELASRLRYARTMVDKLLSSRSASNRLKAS

Row | Ki [1] [nM] | Ki [2] [nM] | Ki [3] [nM] | Ki [4] [nM] | SMILES | effect on ozone-induced M2 receptor dysfunction [5] | effect on ozone-induced potentiation of bronchoconstriction to intravenous acetylcholine [6] | bronchoconstriction in response to intravenous acetylcholine ([6]; air-exposed, 30 mg/kg ip)
1 | > 1000 | > 1000 | > 1000 | > 1000 | OC1CCN(Cc2onc(-c3ccc(F)cc3)c2-c2ccnc(NC3CCCCC3)n2)CC1 [V-05-013] | partially prevented M2 receptor dysfunction | not blocked | 
2 | > 1000 | > 1000 | > 1000 | > 1000 | OC[C@@H]1CCCN1Cc1onc(-c2ccc(F)cc2)c1-c1ccnc(NC2CCCCC2)n1 [V-05-014] | completely protected M2 receptor function | not blocked | 
3 | > 1000 | > 1000 | > 1000 | > 1000 | Fc1ccc(-c2noc(CN3CCCCC3)c2-c2ccnc(NC3CCCCC3)n2)cc1 [V-05-015] | completely protected M2 receptor function | attenuated ozone-induced smooth muscle hyperreactivity | hyperreactive to intravenous acetylcholine
